Reference: patent publication US20240309014A1, “MACROCYCLIC COMPOUNDS AND USES THEREOF” (President and Fellows of Harvard College, priority 2017, published 2024)

System: tubulin protein purified from porcine brain
Assay: Cell-free tubulin polymerization assay
Type: biochemical
Details: final concentrations 0.625-10 μmol/L
Experimental: Tubulin Polymerization Assay kit was purchased from Cytoskeleton, Inc. (Cat.#BKO11P). The kit contained 1 bottle of lyophilized tubulin protein purified from porcine brain, 3 tubes of lyophilized GTP, 2 bottles of lyophilized assay buffer, and 1 bottle of tubulin glycerol buffer. Assay buffer was prepared by dissolving the contents in 10 mL of deionized and sterilized water. This solution contained 80 mmol/L piperazine-N,N′-bis[2-ethanesulfonic acid] sesquisodium salt, 2.0 mmol/L magnesium chloride, 0.5 mmol/L ethylene glycol-bis(2-amino-ethyl ether) N,N,N′,N-tetra-acetic acid, pH 6.9, and 10 μmol/L fluorescent reporter.
The buffer was stored at −70° C. until use. […]
In the tubulin polymerization assay, reaction mixture was prepared by mixing 820 µL of assay buffer, 17.6 μL of GTP stock solution, and 600 μL of tubulin glycerol buffer. […] Fluorescence emission at 460 nm (excitation wavelength at 360 nm) was measured every 2 minutes for 90 minutes using the SpectraMax® M5e microplate reader (Molecular Devices). Tubulin polymerization was followed by fluorescence enhancement due to the incorporation of a fluorescence reporter into microtubules as polymerization occurred. […]

C=C1C[C@@H]2CC[C@@]34C[C@H]5O[C@H]6[C@@H](O3)[C@H]3O[C@H](CC[C@@H]3O[C@H]6C5O4)CC(=O)O[C@@H]3[C@@H](C)[C@@H]4O[C@@H]5C[C@]6(C[C@@H]7O[C@]8(C[C@H](C)[C@@H]9O[C@H](CN)[C@H](O)C[C@@H]9O8)C[C@H](C)[C@@H]7O6)O[C@@H]5C[C@@H]4O[C@H]3C[C@H]3O[C@@H](CC[C@@H]1O2)C[C@@H](C)C3=C (stereo in doubt) [Compound (1)]
effect on tubulin polymerization: inhibited tubulin polymerization in a concentration-dependent manner
